Measured values published in patent publication US20140271584A1, “Methods and Compositions for Direct Reprogramming of Somatic Cells to Stem Cells, and Uses of these Cells” (THE RESEARCH FOUNDATION FOR THE STATE UNIVERSITY OF NEW YORK, priority 2013, published 2014).

Tested on: AF cells
Assay: Colony formation of OCT4 lentivirus-transduced AF cells in ES or endothelial cell medium
Assay type: cell-based, human
Experimental: Transduction via integrating plasmid. Lentivirus based vectors carrying human SOX2 or OCT4 gene, or GFP only gene, each expressed under control of either the SFFV promoter or EF1α promoter, were packaged using the 293FT cell line (Invitrogen/Life Technologies, Inc.) to produce lentivirus. The viruses were concentrated by centrifugation and stored at −80° C. One day before infection, tissue culture dishes were coated with poly-L-ornithine (PLO) and laminin AF, BM, or HFF cells were seeded at a density of 15,000 cells/cm^2. Lentiviruses were added at a MOI of 10-100 in the presence of 8 μg/ml polybrene (EMD Millipore, Billerica, Mass.) for 6 hours. Efficiency was measured after 24-48 hours by expression of green fluorescence.
After viral transduction, cells were transferred to human ES (embryonic stem cell) medium (supplemented with 20% Knockout Serum replacement, 2 mM glutamine, 0.1 mM non-essential amino acids, 10 ng/ml bFGF, 100 μM β-Mercaptoethanol) or endothelial cell medium, such as EGM2 (Lonza, Inc.).

Nc1ncnc2c1nc(Br)n2[C@@H]1O[C@@H]2COP(=O)(O)O[C@H]2[C@H]1O [8-Br-cAMP, (1S,6R,8R,9R)-8-(6-amino-8-bromopurin-9-yl)-3-hydroxy-3-oxo-2,4,7-trioxa-3λ5-phosphabicyclo[4.3.0]nonan-9-ol]
increase of the efficiency of colony formation (accelerated and increased) (0.1 mM in the culture media): approximately 15%

Cc1cccc(-c2n[nH]cc2-c2ccc3ncccc3n2)n1 [compound 616452, 2-(3-(6-Methylpyridin-2-yl)-1H-pyrazol-4-yl)-1,5-naphthyridine]
increase of the efficiency of colony formation (accelerated and increased) (10 μM in the culture media): approximately 15%
